The subject of data set [1] is Human immunodeficiency virus 1. It counts as functional, organism-based. Particulars: Human immunodeficiency virus 1, RES056, MT4, 120 h.
A short description of data set [2]: Cytotoxicity against human MT4 cells assessed as reduction in cell viability measured after 5 days by MTT assay. Particulars: time 5 day. It counts as toxicity, cell-based. (Tetrazolium assays rely on reduction of a dye to a coloured formazan, in cell work by metabolically active cells.)
Data set [3] concerns Human immunodeficiency virus 2. Briefly: Antiviral activity against HIV-2 ROD infected in human MT4 cells assessed as protection against virus-induced cytopathic effect incubated for 5 days by MTT assay. Particulars: Human immunodeficiency virus 2, ROD, MT4, 120 h. Type of data set: functional, organism-based.
The target in data set [4] is Human immunodeficiency virus type 1 reverse transcriptase (Human immunodeficiency virus 1, UniProt Q72547). Briefly: Inhibition of wild type HIV-1 Reverse transcriptase incubated for 1 hrs by ELISA analysis.
A short description of data set [5]: in vitro. Particulars: human, MT4 cells.
Description: Selectivity index, ratio of CC50 for human MT4 cells to EC50 for wild type HIV-1 IIIB infected in human MT4 cells
In data set [6] the test system is Human immunodeficiency virus 1. The data set is described as follows: microbe, parasite or virus in culture. Particulars: Human immunodeficiency virus 1, IIIB, MT4, 120 h.
Description: Antiviral activity against wild type HIV-1 IIIB infected in human MT4 cells assessed as protection against virus-induced cytopathic effect incubated for 5 days by MTT assay
Data set [7] is described as follows: in vitro. Particulars: human, MT4 cells. This is another data set of the same source.
Description: Selectivity index, ratio of CC50 for human MT4 cells to EC50 for HIV-1 RES056 harboring RT K103N/Y181C mutant infected in human MT4 cells

SMILES strings stand for the structures.

For the molecule `Cc1cc(/C=C/C#N)cc(C)c1Oc1ccnc(Nc2ccc3sccc3c2)n1`, the results for the EC50 in data set [1], in data set [3] and in data set [6] were over 1.71 µM, over 1.71 µM and 0.008 µM, respectively. Further, the CC50 (in general, the concentration giving 50% cytotoxicity) at 120 h in data set [2] is 1.71 µM. For the same molecule, the IC50 – broadly, the concentration that gives 50% inhibition – in data set [4] worked out at 0.045 µM. Moreover, the selectivity ratio in data set [5] amounted to 221.
On to `Cc1cc(/C=C/C#N)cc(C)c1Oc1ccnc(Nc2ccc3nc(C#N)sc3c2)n1`, for which the EC50 (as a rule, the concentration giving half of the maximal effect) was over 81.6 µM in data set [1], over 81.6 µM in data set [3] and 0.061 µM in data set [6]. Also, the CC50 at 120 h in data set [2] came to 81.6 µM. For the same molecule, the IC50 in data set [4] amounted to 1.13 µM. The selectivity ratio in data set [5] came out at 1330.
In the case of `Cc1nc2cc(Nc3nccc(Oc4c(C)cc(/C=C/C#N)cc4C)n3)ccc2o1`, the EC50 is over 1 µM in data set [1], over 1 µM in data set [3] and 0.008 µM in data set [6]. Besides, the CC50 at 120 h in data set [2] is 1 µM. In data set [4], this molecule came in with an IC50 of 0.053 µM. Also, the selectivity ratio in data set [5] came out at 129.
For `Cc1cc(/C=C/C#N)cc(C)c1Oc1ccnc(Nc2ccc3c(c2)CCN(C(=O)CS(C)(=O)=O)C3)n1`, the EC50 is over 5.95 µM in data set [1], over 5.95 µM in data set [3] and 0.009 µM in data set [6]. Further, the CC50 at 120 h in data set [2] stood at 5.95 µM. The same molecule came in with an IC50 in data set [4] of 0.12 µM. The selectivity ratio in data set [5] amounted to 642.
For the molecule `Cc1cc(/C=C/C#N)cc(C)c1Oc1ccnc(Nc2ccc3c(C)cc(=O)oc3c2)n1`, the EC50 in data set [1] was over 47.1 µM; in data set [3] it was over 47.1 µM; in data set [6] it was 0.018 µM. Moreover, in data set [2], the CC50 at 120 h was over 47.1 µM. This molecule gave an IC50 in data set [4] of 0.078 µM. Besides, the selectivity ratio in data set [5] was over 2590.
On to `Cc1cc(/C=C/C#N)cc(C)c1Oc1ccnc(Nc2ccc3ncsc3c2)n1`, for which the EC50 in data set [1] is 2.87 µM; in data set [3], over 46 µM; in data set [6], 0.009 µM. Further, the CC50 at 120 h in data set [2] turned out to be 46 µM. This molecule also had an IC50 in data set [4] of 0.07 µM. The selectivity ratio worked out at 5140 in data set [5] and 16 in data set [7].
As for `COP(=O)(OC)N1CCc2ccc(Nc3nccc(Oc4c(C)cc(/C=C/C#N)cc4C)n3)cc2C1`, the values for the EC50 in data set [1], in data set [3] and in data set [6] were over 7.01 µM, over 7.01 µM and 0.12 µM, respectively. Moreover, the CC50 at 120 h in data set [2] amounted to 7.01 µM. In addition, the IC50 in data set [4] was 0.63 µM. Besides, in data set [5], the selectivity ratio came out at 58.
Regarding `Cc1cc(/C=C/C#N)cc(C)c1Oc1ccnc(Nc2ccc3c(c2)CN(C(=O)CS(C)(=O)=O)CC3)n1`, the half-maximal effective concentration (EC50) was over 8.64 µM in data set [1], over 8.64 µM in data set [3] and 0.017 µM in data set [6]. Moreover, the CC50 at 120 h in data set [2] came to 8.64 µM. The IC50 in data set [4] was 0.23 µM. Moreover, the selectivity ratio in data set [5] stood at 524; in data set [7] it was 1.
As for `Cc1cc(/C=C/C#N)cc(C)c1Oc1ccnc(Nc2ccc3c(c2)CN(S(C)(=O)=O)CC3)n1`, the EC50 in data set [1] was over 4.95 µM; in data set [3], over 4.95 µM; in data set [6] it was 0.006 µM. Further, the CC50 at 120 h in data set [2] was 4.95 µM. This molecule also had an IC50 in data set [4] of 0.078 µM. In data set [5], the selectivity ratio came out at 791.
As to `Cc1cc(/C=C/C#N)cc(C)c1Oc1ccnc(Nc2ccc3c(c2)CN(C)C3=O)n1`, the EC50 is over 40.4 µM in data set [1], over 40.4 µM in data set [3] and 0.031 µM in data set [6]. Besides, in data set [2], the CC50 at 120 h stood at 40.4 µM. Also, in data set [4], the IC50 was 0.63 µM. Moreover, the selectivity ratio in data set [5] is 1290.
With `Cc1cc(/C=C/C#N)cc(C)c1Oc1ccnc(Nc2ccc3c(c2)CN(S(N)(=O)=O)CC3)n1`, the EC50 is 6.47 µM in data set [1], over 11.6 µM in data set [3] and 0.016 µM in data set [6]. In addition, in data set [2], the CC50 at 120 h was 11.6 µM. The molecule also displayed an IC50 in data set [4] of 0.11 µM. The selectivity ratio in data set [5] is 743; in data set [7] it was 2.
As for `Cc1cc(/C=C/C#N)cc(C)c1Oc1ccnc(Nc2ccc3c(c2)OCCO3)n1`, the EC50 in data set [1] was over 12.1 µM; in data set [3] it was over 12.1 µM; in data set [6] it was 0.014 µM. Also, the CC50 at 120 h in data set [2] came to 12.1 µM. For the same molecule, half-maximal inhibition in data set [4] (IC50) required 0.05 µM. Also, in data set [5], the selectivity ratio amounted to 855.
Consider `Cc1cc(/C=C/C#N)cc(C)c1Oc1ccnc(Nc2ccc3c(c2)CCN(CCS(C)(=O)=O)C3)n1`, for which the concentration giving a half-maximal response (EC50) in data set [1] is over 4.77 µM; in data set [3], over 4.77 µM; in data set [6], 0.019 µM. Moreover, in data set [2], the CC50 at 120 h was 4.77 µM. The molecule further returned an IC50 in data set [4] of 0.17 µM. Besides, the selectivity ratio in data set [5] came to 256.
Consider `Cc1cc(/C=C/C#N)cc(C)c1Oc1ccnc(Nc2ccc3c(C(F)(F)F)cc(=O)oc3c2)n1`, for which the EC50 is over 185 µM in data set [1], over 185 µM in data set [3] and 0.076 µM in data set [6]. For the same molecule, in data set [2], the CC50 at 120 h is 185 µM. In data set [4], this molecule came in with an IC50 of 0.23 µM. Besides, in data set [5], the selectivity ratio was 2420.
In the case of `Cc1nc2cc(Nc3nccc(Oc4c(C)cc(/C=C/C#N)cc4C)n3)ccc2s1`, the figures for the EC50 in data set [1], in data set [3] and in data set [6] were over 5.31 µM, over 5.31 µM and 0.012 µM, respectively. For the same molecule, in data set [2], the CC50 at 120 h was 5.31 µM. For the same molecule, the IC50 in data set [4] was found to be 0.077 µM. Further, in data set [5], the selectivity ratio came to 431.
For `Cc1cc(/C=C/C#N)cc(C)c1Oc1ccnc(Nc2ccc3c(c2)C(=O)NC3)n1`, the EC50 in data set [1] is over 103 µM; in data set [3], over 103 µM; in data set [6], 0.006 µM. The CC50 at 120 h in data set [2] was 103 µM. For the same molecule, the IC50 in data set [4] was determined as 0.058 µM. The selectivity ratio in data set [5] is 16000.
Take `Cc1cc(/C=C/C#N)cc(C)c1Oc1ccnc(Nc2ccc3c(c2)OC(F)(F)O3)n1`: the results for the EC50 in data set [1], in data set [3] and in data set [6] were 5.31 µM, over 19.2 µM and 0.02 µM, respectively. The CC50 at 120 h in data set [2] amounted to 19.2 µM. This molecule also gave an IC50 in data set [4] of 0.09 µM. Also, the selectivity ratio was 966 in data set [5] and 4 in data set [7].
In the case of `Cc1cc(/C=C/C#N)cc(C)c1Oc1ccnc(Nc2ccc3c(c2)CCN(S(C)(=O)=O)C3)n1`, the EC50 in data set [1] is over 6.63 µM; in data set [3] it was over 6.63 µM; in data set [6] it was 0.007 µM. For the same molecule, the CC50 at 120 h in data set [2] is 6.63 µM. Moreover, in data set [4], half-maximal inhibition (IC50) required 0.1 µM. In data set [5], the selectivity ratio stood at 970.
Consider `Cc1cc(/C=C/C#N)cc(C)c1Oc1ccnc(Nc2ccc3c(c2)CN(CC#N)CC3)n1`, for which the EC50 in data set [1] is over 5.85 µM; in data set [3], over 5.85 µM; in data set [6] it was 0.037 µM. In addition, in data set [2], the CC50 at 120 h was 5.85 µM. In addition, the IC50 in data set [4] was found to be 0.25 µM. Moreover, in data set [5], the selectivity ratio stood at 159.
With `Cc1cc(/C=C/C#N)cc(C)c1Oc1ccnc(Nc2ccc3c(c2)CCN(S(N)(=O)=O)C3)n1`, the EC50 in data set [1] was over 6.24 µM; in data set [3] it was over 6.24 µM; in data set [6], 0.008 µM. In data set [2], the CC50 at 120 h was 6.24 µM. The midpoint of inhibition in data set [4], the IC50, lay at 0.055 µM. In data set [5], the selectivity ratio was determined as 748.
Take `Cc1cc(/C=C/C#N)cc(C)c1Oc1ccnc(Nc2ccc3oncc3c2)n1`: the EC50 was 4.15 µM in data set [1], over 17.6 µM in data set [3] and 0.007 µM in data set [6]. For the same molecule, in data set [2], the CC50 at 120 h was determined as 17.6 µM. Besides, half-maximal inhibition in data set [4] (IC50) was put at 0.065 µM. The selectivity ratio in data set [5] was 2640; in data set [7] it was 4.
On to `COP(=O)(OC)N1CCc2cc(Nc3nccc(Oc4c(C)cc(/C=C/C#N)cc4C)n3)ccc2C1`, for which the values for the EC50 in data set [1], in data set [3] and in data set [6] were over 4.18 µM, over 4.18 µM and 0.008 µM, respectively. The CC50 at 120 h in data set [2] was 4.18 µM. In data set [4], this molecule gave an IC50 of 0.17 µM. The selectivity ratio in data set [5] amounted to 515.
